Measurements published in patent US10450356B2, “PRAME derived peptides and immunogenic compositions comprising these” (Academisch Ziekenhuis Leiden H.O.D.N. LUMC, priority 2007, dated 2019).

Target: T1, 20S proteasomes purified from a B-LCL cell line (immunoproteasomes) (Homo sapiens, UniProt P28062+P28065+P40306)
T1 construct: 20S proteasomes were purified from a B-LCL cell line; endogenous in cells; purified after Groettrup et al. 1995
Assay: In vitro proteasome mediated cleavage analysis
Type: biochemical
Set-up: key to Intact in fragment / Intact Fragment: intact epitope found in digestion fragments: (+), present; (-), not present; key to Processing C-term: generation by proteasome-mediated digestion of fragments containing the correct C-terminus: (++) fragments present for >5%; (+) present for <5%; (-) no fragments containing the C-term. were found
Conditions: for Processing C-term: generation by proteasome-mediated digestion of fragments containing the correct C-terminus: 1 h digestion; for Intact Fragment: intact epitope found in digestion fragments: after 1 h digestion; for C-term. generation: generation of C-terminus of the epitope after 1 h digestion; for Intact in fragment: intact epitope found in digestion fragments after 1 h digestion
Method: 20S proteasomes were purified from a B-LCL cell line as described by Groettrup et al. (J. Biol. Chem. 270:23808-23815; 1995). This cell type is known to contain immunoproteasomes. High LMP2 and 7 content was confirmed by 2-D immuno-blotting. To assess kinetics, digestions were performed with different incubation periods. Peptides (27 mers, 20 μg) were incubated with 1 μg of purified proteasome at 37° C. for 1 h, 4 h and 24 h in 300 μl proteasome digestion buffer as described (Eggers, et al. 1995. J. Exp. Med. 182:1865). Trifluoroacetic acid was added to stop the digestion and samples were stored at −20° C. before mass spectrometric analysis.
Electrospray ionization mass spectrometry was performed on a hybrid quadrupole time-of-flight mass spectrometer, a Q-TOF (Micromass), equipped with an on-line nanoelectrospray interface with an approximate flow rate of 250 nL/min. Injections were done with a dedicated micro/nano HPLC autosampler, the FAMOS (LC Packings). Digestion solutions were diluted five times in water-methanol-acetic acid (95:5:1, v/v/v), and trapped on the precolumn (MCA-300-05-C8; LC Packings) in water-methanol-acetic acid (95:5:1, v/v/v). Washing of the precolumn was done for 3 min to remove the buffers present in the digests. Subsequently, the trapped analytes were eluted with a steep gradient going from 70% B to 90% B in 10 min, with a flow of 250 nl/min (A: water-methanol-acetic acid (95:5:1, v/v/v); B: water-methanol-acetic acid (10:90:1, v/v/v)). This low elution rate allows for a few additional MS/MS experiments if necessary during the same elution. Mass spectra were recorded from mass 50-2000 Da every second. The resolution allows direct determination of the monoisotopic mass, also from multiple charged ions. The peaks in the mass spectrum were searched in the digested precursor peptide using the Biolynx/proteins software (Micromass). The intensity of the peaks in the mass spectra was used to establish the relative amounts of peptides generated by proteasome digestion.

| SMILES | Processing C-term: generation by proteasome-mediated digestion of fragments containing the correct C-terminus | Intact Fragment: intact epitope found in digestion fragments | C-term. generation | Intact in fragment |
| --- | --- | --- | --- | --- |
| CC(C)C[C@H](NC(=O)[C@H](Cc1c[nH]cn1)NC(=O)[C@H](CCC(N)=O)NC(=O)[C@H](CC(C)C)NC(=O)[C@H](CC(C)C)NC(=O)[C@H](CO)NC(=O)[C@H](CCC(N)=O)NC(=O)[C@H](CC(C)C)NC(=O)[C@H](C)N)C(=O)O | - | - |  |  |
| CC[C@H](C)[C@H](NC(=O)[C@H](CC(C)C)NC(=O)[C@H](Cc1c[nH]cn1)NC(=O)[C@H](CCC(N)=O)NC(=O)[C@H](CC(C)C)NC(=O)[C@H](CC(C)C)NC(=O)[C@H](CO)NC(=O)[C@H](CCC(N)=O)NC(=O)[C@H](CC(C)C)NC(=O)[C@H](C)N)C(=O)O | - | - |  |  |
| CC(C)C[C@H](NC(=O)[C@H](CCC(N)=O)NC(=O)[C@H](CC(=O)O)NC(=O)[C@H](CC(C)C)NC(=O)[C@H](CCCNC(=N)N)NC(=O)CNC(=O)[C@H](CCCNC(=N)N)NC(=O)[C@H](CC(C)C)NC(=O)[C@H](Cc1ccccc1)NC(=O)[C@@H](N)Cc1ccccc1)C(=O)O | - | - |  |  |
| CC(C)C[C@H](NC(=O)[C@H](CC(C)C)NC(=O)[C@H](CCC(N)=O)NC(=O)[C@H](CC(=O)O)NC(=O)[C@H](CC(C)C)NC(=O)[C@H](CCCNC(=N)N)NC(=O)CNC(=O)[C@H](CCCNC(=N)N)NC(=O)[C@H](CC(C)C)NC(=O)[C@@H](N)Cc1ccccc1)C(=O)O | - | - |  |  |
| CC(C)C[C@H](NC(=O)[C@@H](NC(=O)[C@H](Cc1c[nH]cn1)NC(=O)[C@@H](NC(=O)[C@H](CC(C)C)NC(=O)[C@H](CC(N)=O)NC(=O)[C@H](CO)NC(=O)[C@H](CC(C)C)NC(=O)CN)[C@@H](C)O)C(C)C)C(=O)O | + ((+) present for <5%) | - |  |  |
| CC(C)C[C@H](NC(=O)[C@@H]1CCCN1C(=O)[C@H](CCC(=O)O)NC(=O)[C@@H]1CCCN1C(=O)[C@H](CO)NC(=O)[C@@H](NC(=O)[C@H](CC(=O)O)NC(=O)[C@@H](NC(=O)[C@@H](N)CC(C)C)[C@@H](C)O)C(C)C)C(=O)N[C@@H](CCC(N)=O)C(=O)O | + ((+) present for <5%) | + | + (low abundant (+) present for <5%) | + |
| CC(C)C[C@H](NC(=O)[C@@H]1CCCN1C(=O)[C@H](CCC(=O)O)NC(=O)[C@@H]1CCCN1C(=O)[C@H](CO)NC(=O)[C@@H](NC(=O)[C@H](CC(=O)O)NC(=O)[C@@H](NC(=O)[C@@H](N)CC(C)C)[C@@H](C)O)C(C)C)C(=O)N[C@@H](CCC(N)=O)C(=O)N[C@@H](C)C(=O)O | + ((+) present for <5%) | + | + (low abundant (+) present for <5%) | + |
| CSCC[C@H](N)C(=O)N[C@@H](CC(C)C)C(=O)N[C@H](C(=O)N[C@@H](CC(=O)O)C(=O)N[C@H](C(=O)N[C@@H](CO)C(=O)N1CCC[C@H]1C(=O)N[C@@H](CCC(=O)O)C(=O)N1CCC[C@H]1C(=O)N[C@@H](CC(C)C)C(=O)O)C(C)C)[C@@H](C)O | - | - |  |  |
| CC(C)C[C@H](NC(=O)[C@@H](NC(=O)[C@H](Cc1c[nH]cn1)NC(=O)[C@@H](NC(=O)[C@H](CC(C)C)NC(=O)[C@@H](N)CC(N)=O)[C@@H](C)O)C(C)C)C(=O)N[C@@H](Cc1ccc(O)cc1)C(=O)N1CCC[C@H]1C(=O)N[C@H](C(=O)O)C(C)C | - | - |  |  |
| CC[C@H](C)[C@H](NC(=O)[C@H](CO)NC(=O)CNC(=O)[C@H](Cc1c[nH]c2ccccc12)NC(=O)[C@H](CC(C)C)NC(=O)[C@@H](N)CCCNC(=N)N)C(=O)N[C@@H](CCC(N)=O)C(=O)N[C@@H](CO)C(=O)N[C@@H](CCCNC(=N)N)C(=O)O | - | - |  |  |
| CC[C@H](C)[C@H](NC(=O)[C@H](Cc1ccc(O)cc1)NC(=O)[C@@H](N)CCCNC(=N)N)C(=O)N[C@@H](CO)C(=O)N[C@@H](CCSC)C(=O)N[C@@H](CO)C(=O)N[C@H](C(=O)N[C@@H](Cc1c[nH]c2ccccc12)C(=O)N[C@H](C(=O)N[C@@H](CO)C(=O)O)[C@@H](C)O)C(C)C | - | - |  |  |
| CC[C@H](C)[C@H](NC(=O)[C@H](CO)NC(=O)[C@@H](NC(=O)[C@H](CO)NC(=O)[C@H](CC(N)=O)NC(=O)CNC(=O)[C@H](Cc1ccc(O)cc1)NC(=O)[C@H](Cc1ccccc1)NC(=O)[C@@H](N)CO)[C@@H](C)CC)C(=O)O | ++ ((++) fragments present for >5%) | + | ++ (abundant (++) present for >5%) | + |
| CC[C@H](C)[C@H](NC(=O)[C@@H](N)CO)C(=O)N[C@@H](CO)C(=O)N[C@@H](C)C(=O)N[C@@H](CC(C)C)C(=O)N[C@@H](CCC(N)=O)C(=O)N[C@@H](CO)C(=O)N[C@@H](CC(C)C)C(=O)N[C@@H](CC(C)C)C(=O)O | - | - |  |  |
| CSCC[C@H](NC(=O)[C@@H](NC(=O)CNC(=O)[C@H](CO)NC(=O)[C@H](CC(C)C)NC(=O)[C@@H](N)CO)C(C)C)C(=O)N[C@@H](CC(C)C)C(=O)N[C@H](C(=O)N[C@@H](CC(=O)O)C(=O)N[C@H](C(=O)O)C(C)C)[C@@H](C)O | - | - |  |  |
| CC[C@H](C)[C@H](NC(=O)[C@H](CC(=O)O)NC(=O)[C@H](CCC(=O)O)NC(=O)[C@H](Cc1ccc(O)cc1)NC(=O)[C@@H](N)CO)C(=O)N[C@@H](Cc1c[nH]cn1)C(=O)NCC(=O)N[C@H](C(=O)N[C@@H](CC(C)C)C(=O)O)[C@@H](C)O | - | - |  |  |
| CC(C)C[C@H](NC(=O)[C@H](CCCNC(=N)N)NC(=O)[C@H](CCC(=O)O)NC(=O)[C@H](CC(C)C)NC(=O)[C@H](Cc1c[nH]cn1)NC(=O)[C@H](CC(C)C)NC(=O)[C@@H](N)[C@@H](C)O)C(=O)N[C@@H](C)C(=O)N[C@@H](Cc1ccc(O)cc1)C(=O)O | - | - |  |  |
| CC(C)C[C@H](NC(=O)[C@H](Cc1ccc(O)cc1)NC(=O)[C@H](C)NC(=O)[C@H](CC(C)C)NC(=O)[C@H](CCCNC(=N)N)NC(=O)[C@H](CCC(=O)O)NC(=O)[C@H](CC(C)C)NC(=O)[C@H](Cc1c[nH]cn1)NC(=O)[C@H](CC(C)C)NC(=O)[C@@H](N)[C@@H](C)O)C(=O)O | - | - |  |  |
| CC[C@H](C)[C@H](NC(=O)[C@H](CO)NC(=O)[C@H](CC(N)=O)NC(=O)CNC(=O)[C@H](Cc1ccc(O)cc1)NC(=O)[C@H](Cc1ccccc1)NC(=O)[C@H](CO)NC(=O)[C@H](CC(C)C)NC(=O)[C@@H](N)[C@@H](C)O)C(=O)O | - | - | ++ (abundant (++) present for >5%) | + |
